These results are taken from patent US9426989B2 (priority 2010, dated 2016).

Common to all, as to format: cell-based
For experiment [1], the system named is Enteroviruses (Coxsackie virus, Echovirus). As to the kind of experiment: Comparative data for inactivation with BPL: Enteroviruses. To be noted: BPL 0.05%; 16 hours +2-8° C. (then 2 hours 37° C. for BPL hydrolysis).
In a further experiment the test system is BK Polyoma virus. The experiment in a line: Comparative data for inactivation with BPL: BK Polyoma virus. To be noted: BPL 0.05%; 16 hours +2-8° C. (then 2 hours 37° C. for BPL hydrolysis).
Experiment [2] concerns Mammalian orthoreovirus, type 3 (strain Dearing, ATCC VR-824).

For the compound `O=C1CCO1` [BPL, β-propiolactone], the LRV in experiment [1] is given as 4-5; with BK Polyoma virus, 2.1.

Consider `COO` [Inactivator 072, Methylhydroperoxide], for which, in experiment [2], the “Reduction (of reovirus titre)” value came out at 0.9 log 10 and the “reovirus inactivation, in words” value is given as “performed poorly”.
